Laboratory results: patent US8604016B2, “Heterocyclic inhibitors of glutaminase” (Calithera Biosciences Inc., priority 2011, dated 2013)

Legend:
[1] = target: T1, recombinant form of Glutaminase 1 (GAC) (Homo sapiens, UniProt O94925); experiment: Recombinant Enzyme Assay - Time Dependence (60 minutes enzyme/compound preincubation); assay type: biochemical
Experimental: The enzyme/compound mix was sealed with sealing foil (USA Scientific) and allowed to incubate, with mild agitation, for 60 minutes at 20° C. Enzymatic reaction was started with the addition of 50 μL of substrate solution (50 mM Tris-HCl pH 8.0, 0.2 mM EDTA, 150 mM K2HPO4, 0.1 mg/ml BSA, 1 mM DTT, 20 mM L-glutamine, 2 mM NAD^+, and 10 ppm antifoam) and read in a Molecular Devices M5 plate reader at 20° C. The plate reader was configured to read absorbance (λ=340 nm) in kinetic mode for 15 minutes. Data was recorded as milli-absorbance units per minute and slopes were compared to a control compound and a DMSO-only control on the same plate. Compounds with slopes less than the DMSO control were considered inhibitors and plate variability was assessed using the control compound.

[2] = target: T1, recombinant form of Glutaminase 1 (GAC); experiment: Recombinant Enzyme Assay (GAC coupled to GDH, NADH absorbance, no preincubation); assay type: biochemical; settings: no preincubation; read-out: GAC Delta N2 IC50 no preinc
Outline: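 GAC (4 nM) in Tris-HCl pH 8.0 with 150 mM K2HPO4, EDTA, BSA, DTT, plus 4 units/ml GDH and 4 mM ADP, without preincubation. Absorbance at 340 nm was read kinetically for 15 min at 20° C. Slopes (mAU/min) were compared with DMSO-only and control-compound wells on the same plate.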

Caco-2 cell monolayers = experiment: Caco-2 Permeability Assay (bidirectional); assay type: in vitro ADME
Description: (§1) Caco-2 cells are commonly used in a confluent monolayer on a cell culture insert filter. When cultured in this format and under specific conditions, the cells become differentiated and polarized such that their phenotype, morphologically and functionally resembles the enterocytes lining the small intestine. The cell monolayer provides a physical and biochemical barrier to the passage of small molecules, and is widely used across the pharmaceutical industry as an in vitro model of the human small intestinal mucosa to predict the absorption of orally administered drugs (Hidalgo et al., Gastroenterology, 1989; Artursson, J. Pharm. Sci., 1990). The correlation between the in vitro apparent permeability (P ? app) across Caco-2 monolayers and the in vivo absorption is well established (Artursson et al., Biochem. Biophys. Res. Comm., 1991).
(§2) The present assay was used to determine the bidirectional permeability of the compounds of the invention through Caco-2 cell monolayers. Caco-2 cells were grown in confluent monolayers where the media of both the apical (A) and basolateral (B) sides were at pH 7.4. Compounds were dosed at 1 μM in the presence of 200 μM Lucifer Yellow, on the apical side (A→B) or the basolateral side (B→A) for assessment, in duplicate.
(§3) The absorption potential of compounds were classified as either Low (P-app <1×10^−6 cm/s) or High (P-app >1×10^−6 cm/s).

[3] = Caco-2 Permeability Assay (bidirectional); assay type: in vitro ADME; settings: human; for recovery at 120 min, 1 μM / Papp A→B at 120 min, 1 μM / Papp B→A at 120 min, 1 μM: pH 7.4; for efflux ratio at 120 min, 1 µM / Papp A→B at 120 min, 1 μM / Papp B→A at 120 min, 1 μM / permeability class (Low/High absorption potential) at 120 min, 1 µM: Caco-2; for efflux ratio at 120 min, 1 µM: (Papp B→A)/(Papp A→B); for Papp A→B at 120 min, 1 μM: Direction A→B; for Papp A→B at 120 min, 1 μM / Papp B→A at 120 min, 1 μM: unit not given (thresholds in 10^−6 cm/s); for Papp B→A at 120 min, 1 μM: Direction B→A; for permeability class (Low/High absorption potential) at 120 min, 1 µM: read-out: Permeability Classification
Description: as §1, §2, §3

[4] = read-out: GAC Delta N2 IC50 60 min preinc
[5] = read-out: GAC Delta N2 IC50 60 min

Structure (SMILES) | IC50 [1, 4] [nM] | IC50 [2] [nM] | Significant Efflux (Caco-2 cell monolayers) | recovery at 120 min, 1 μM ([3]; Caco-2, pH 7.4, Direction A→B) [%] | recovery at 120 min, 1 μM ([3]; Caco-2, pH 7.4, Direction B→A) [%] | efflux ratio at 120 min, 1 µM [3] | Papp A→B at 120 min, 1 μM [3] [×10⁻⁶ cm/s] | Papp B→A at 120 min, 1 μM [3] [×10⁻⁶ cm/s] | permeability class (Low/High absorption potential) at 120 min, 1 µM [3] [×10⁻⁶ cm/s] | IC50 [1, 5] [nM]
O=C(Nc1nnc(CCCCc2nnc(NC(=O)[C@@H](O)c3ccccc3)s2)s1)[C@@H](O)c1ccccc1 [Compound 92] | 140 | 380 | – | – | – | – | – | – | – | –
O=C(Cc1cccc(Br)c1)Nc1nnc(CCSCCc2nnc(NC(=O)Cc3cccc(Br)c3)s2)s1 [Compound 270] | > 5000 | 7400 | – | – | – | – | – | – | – | –
CC(C)(C)OC(=O)N1CCN(Cc2cccc(CC(=O)Nc3nnc(CCSCc4nnc(NC(=O)Cc5cccc(CN6CCN(C(=O)OC(C)(C)C)CC6)c5)s4)s3)c2)CC1 [Compound 275] | 150 | 2200 | – | – | – | – | – | – | – | –
O=C(Nc1nnc(CCCCc2nnc(NC(=O)C(O)c3cccc(Br)c3)s2)s1)C(O)c1cccc(Br)c1 (stereo not shown) [Compound 288] | 40 | 670 | – | – | – | – | – | – | – | –
O=C(Nc1nnc(CCCCc2nnc(NC(=O)C(O)c3cccc(Cl)c3)s2)s1)C(O)c1cccc(Cl)c1 (stereo not shown) [Compound 306] | 31 | 520 | – | – | – | – | – | – | – | –
O=C(Cc1ccccc1)Nc1ccc(CCCCc2nnc(NC(=O)C(O)c3cccc(Cl)c3)s2)nn1 (stereo not shown) [Compound 318] | – | – | Yes (efflux ratios being significant when greater than or equal to 3 when the Papp (B→A) was greater than or equal to 1×10^−6 cm/s) | 73 | 82 | 18 | 2.45 | 44.5 | > 1 | –
CC(C)(C)OC(=O)NCc1cccc(CC(=O)Nc2nnc(CCCCc3ccc(NC(=O)Cc4ccccc4)nn3)s2)c1 [Compound 339] | – | – | Yes (efflux ratios being significant when greater than or equal to 3 when the Papp (B→A) was greater than or equal to 1×10^−6 cm/s) | 73 | 80 | – | 2.39 | 41.6 | > 1 | –
O=C(Cc1ccccc1)Nc1ccc(CCCCc2nnc(NC(=O)Cc3ccccn3)s2)nn1 [Compound 354] | – | – | Yes (efflux ratios being significant when greater than or equal to 3 when the Papp (B→A) was greater than or equal to 1×10^−6 cm/s) | 117 | 101 | – | 1.38 | 45 | > 1 | –
CC(C(=O)Nc1ccc(CCCCc2nnc(NC(=O)Cc3cccc(CNC(=O)OC(C)(C)C)c3)s2)nn1)c1ccccc1 (stereo not shown) [Compound 436] | – | – | Yes (efflux ratios being significant when greater than or equal to 3 when the Papp (B→A) was greater than or equal to 1×10^−6 cm/s) | 44 | 57 | 6.6 | 3.75 | 24.7 | > 1 | –
O=C(Cc1ccccc1)Nc1nnc(CCCCc2nnc(NC(=O)C(O)c3cccc(Cl)c3)s2)s1 (stereo not shown) [Compound 527] | 24 | 130 | – | – | – | – | – | – | – | –
O=C(Cc1ccccc1Cl)Nc1ccc(CCCCc2nnc(NC(=O)Cc3ccccc3F)s2)nn1 [Compound 533] | – | – | Yes (efflux ratios being significant when greater than or equal to 3 when the Papp (B→A) was greater than or equal to 1×10^−6 cm/s) | 41 | 52 | 7.6 | 4.94 | 37.5 | > 1 | –
CC(C(=O)Nc1nnc(CCCCc2ccc(NC(=O)Cc3ccccc3)nn2)s1)c1ccccc1 (stereo not shown) [Compound 616] | – | – | Yes (efflux ratios being significant when greater than or equal to 3 when the Papp (B→A) was greater than or equal to 1×10^−6 cm/s) | 65 | 76 | 6 | 8.23 | 49.5 | > 1 | –
CCCC(=O)OCN(C(=O)Cc1ccccc1)c1nnc(CCCCc2ccc(NC(=O)Cc3cccc(OC(F)(F)F)c3)nn2)s1 [Compound 629] | – | – | – | – | – | – | – | – | – | > 20000
CC(NC(=O)OC(C)(C)C)c1cc(CC(=O)Nc2nnc(CCCCc3ccc(NC(=O)Cc4ccccc4)nn3)s2)ccc1F (stereo not shown) [Compound 653] | – | – | – | – | – | – | – | – | – | 5
CC(NC(=O)OC(C)(C)C)c1cc(CC(=O)Nc2ccc(CCCCc3nnc(NC(=O)Cc4ccccc4)s3)nn2)ccc1F (stereo not shown) [Compound 654] | – | – | – | – | – | – | – | – | – | 5
O=C(Cc1cccc(OC(F)(F)F)c1)Nc1ccc(CCCCc2nnc(NC(=O)Cc3cccc(OC(F)(F)F)c3)s2)nn1 [Compound 660] | – | – | Yes (efflux ratios being significant when greater than or equal to 3 when the Papp (B→A) was greater than or equal to 1×10^−6 cm/s) | 56 | 68 | 3.9 | 0.61 | 2.37 | < 1 | –
O=C(Cc1cccc(OC(F)(F)F)c1)Nc1ccc(CCCCc2nnc(NC(=O)Cc3cccc(F)c3)s2)nn1 [Compound 679] | – | – | No (efflux ratios being significant when greater than or equal to 3 when the Papp (B→A) was greater than or equal to 1×10^−6 cm/s) | 34 | 42 | 2.6 | 7.59 | 19.6 | > 1 | –
O=C(Cc1cccc(OC(F)(F)F)c1)Nc1ccc(CCCCc2nnc(NC(=O)[C@H](O)c3ccccc3)s2)nn1 [Compound 705] | – | – | Yes (efflux ratios being significant when greater than or equal to 3 when the Papp (B→A) was greater than or equal to 1×10^−6 cm/s) | 60 | 67 | 6 | 8.52 | 51 | > 1 | –
